Laboratory results: patent publication US12384801B2, “Benzothiophene, thienopyridine and thienopyrimidine derivatives for the modulation of sting” (CTXT PTY LTD, priority 2019, dated 2025)

How the values were obtained:
WT human STING isoform = WT human STING isoform (Homo sapiens (Human), UniProt Q86WV6, H232R); assay: THP-1-Dual KI-hSTING-R232 reporter cell line assay; type: cell-based; details: 24 h incubation, luminescence, normalized to ML RR-S2 CDA 40 μM; read-out: EC50 THP-1 Dual KI-hSTING-R232 cells
Sequence of WT human STING isoform (Q86WV6 whole entry H232R, canonical isoform): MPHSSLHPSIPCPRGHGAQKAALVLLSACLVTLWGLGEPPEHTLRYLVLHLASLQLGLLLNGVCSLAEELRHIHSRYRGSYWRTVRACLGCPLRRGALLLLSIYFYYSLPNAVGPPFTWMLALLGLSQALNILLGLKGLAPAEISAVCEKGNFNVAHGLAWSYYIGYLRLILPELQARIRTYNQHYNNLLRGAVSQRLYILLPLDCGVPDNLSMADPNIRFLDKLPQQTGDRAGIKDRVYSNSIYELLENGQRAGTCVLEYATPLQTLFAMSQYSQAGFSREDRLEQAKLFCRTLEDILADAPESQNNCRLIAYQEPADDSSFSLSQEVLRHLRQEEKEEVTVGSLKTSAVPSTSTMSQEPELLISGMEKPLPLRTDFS
Procedure: (§1) THP-1 STING Lucia ISG cells (InvivoGen #thpl-isg) were cultured in RPMI-1640 containing 2 mM L-glutamine, 25 mM HEPES, 100 μg/mL Normocin (InvivoGen) and 10% heat-inactivated FBS. Cells were seeded at a density of 7×10^5 cells/mL, maintained at 37° C./5% CO2, and passaged every 3-4 days. Selection pressure was maintained by the addition of 100 μg/mL Zeocin every second passage.
(§2) Assay conditions: cells were harvested and resuspended at a concentration of 5×10^5 cells/mL in fresh growth media. Of this cell preparation 20 μL per well was dispensed into 384 well cell culture plates (Greiner, #781098X) and incubated at 37° C./5% CO2 for 2 hours.
(§3) Concentration Response Curves (commonly 11 doses) were prepared by 2.5 fold serial dilution starting from 10 mM compound stock solution in DMSO. Compound dilutions were transferred into the cell culture plates using a pintool (0.1 μL transfer), control wells were matched for DMSO. Positive control wells received ML RR-S2 CDA (Med Chem Express HY12885B) in 5 μL of media to a final concentration of 40 μM. All other wells received additional 5 μL of media only to equalize volume. The plates were incubated for 24 h at 37° C./5% CO2.
(§4) For the detection step, QUANTI-Luc (InvivoGen #rep-qlc1) was prepared according to manufacturer's instruction and 10 μL were added per well to the culture plates. Plates were shaken for ten seconds on an orbital shaker and left in the dark at room temperature for two minutes, before luminescence was read on a Perkin Elmer Envision plate reader.
(§5) Data analysis: Luminescence raw data was normalized % activity relative to the signal of the positive control wells and negative control wells which were not treated with compound. The following formula was used to calculate normalized % activity from raw signals: % activity=(sample−negative)/(positive−negative)
(§6) The THP-1 STING Lucia ISG cell EC50 provides an assessment of activity at the human HAQ isoform of STING. For assessing compound activity against the WT human STING isoform, an equivalent method was conducted where the cells used were THP-1-Dual KI-hSTING-R232 (InvivoGen #thpd-r232).

human STING (HAQ) [1] = target: T1, human STING (HAQ) (Homo sapiens (Human), UniProt Q86WV6, G230A/H232R/R293Q); assay: Differential scanning fluorimetry (DSF), huSTING (HAQ); type: binding; details: compound 100 μM, 2 μM protein, Tm with ligand minus Tm of protein alone (1% DMSO)
T1 sequence (Q86WV6 149-345 G230A/H232R/R293Q): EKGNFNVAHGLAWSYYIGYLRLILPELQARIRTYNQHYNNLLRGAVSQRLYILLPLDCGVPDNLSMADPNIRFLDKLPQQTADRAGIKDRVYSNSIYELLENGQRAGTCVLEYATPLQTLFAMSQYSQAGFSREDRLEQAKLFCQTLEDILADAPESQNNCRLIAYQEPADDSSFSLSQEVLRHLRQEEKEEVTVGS
Procedure: (§7) Data were analyzed using “Meltdown analysis” protocol described by Rosa (2015).

human STING (WT) [2] = target: T2, human STING (WT) (Homo sapiens (Human), UniProt Q86WV6, H232R); assay: Differential scanning fluorimetry (DSF), huSTING (WT); type: binding; details: compound 100 μM, 2 μM protein, Tm with ligand minus Tm of protein alone (1% DMSO)
T2 sequence (Q86WV6 149-345 H232R): as the sequence (Q86WV6 149-345 G230A/H232R/R293Q) above, with A82G, Q145R counted along it
Procedure: as §7

[3] = target: human HAQ isoform of STING (Homo sapiens (Human), UniProt Q86WV6, G230A/H232R/R293Q/R71H); assay: THP-1 STING Lucia ISG reporter cell line assay; type: cell-based; details: 24 h incubation, luminescence, normalized to ML RR-S2 CDA 40 μM; read-out: EC50 THP-I STING Lucia ISG cells
Sequence of human HAQ isoform of STING (Q86WV6 whole entry R71H/G230A/H232R/R293Q, canonical isoform): as the sequence (Q86WV6 whole entry H232R, canonical isoform) above, with R71H, G230A, R293Q counted along it
Procedure: as §1, §2, §3, §4, §5, §6

human STING (WT) [4] = target: T2, human STING (WT); assay: biochemical
human STING (HAQ) [5] = target: T1, human STING (HAQ); assay: biochemical
human STING (WT) [6] = target: T2, human STING (WT); assay: Surface Plasmon Resonance (SPR), STING (WT); details: read-out: SPR (WT) KD; biotinylated STING on streptavidin chip, 8° C.
human STING (HAQ) [7] = target: T1, human STING (HAQ); assay: Surface Plasmon Resonance (SPR), STING (HAQ); details: read-out: SPR (HAQ) KD; biotinylated STING on streptavidin chip, 8° C.

Compound | EC50 (WT human STING isoform) [µM] | ΔTm at 100 µM (human STING (HAQ) [1]) [°C] | DSF huSTING (WT) ΔTm (human STING (WT) [2]) [°C] | EC50 [3] [µM] | Kd (human STING (WT) [4]) [µM] | Kd (human STING (HAQ) [5]) [µM] | DSF huSTING (HAQ) ΔTm (human STING (HAQ) [1]) [°C] | Kd (human STING (WT) [6]) [µM] | Kd (human STING (HAQ) [7]) [µM] | ΔTm at 100 µM (human STING (WT) [2]) [°C]
NC(=O)c1ccc2c(c1)nc(-c1c(C(=O)O)sc3cccc(Cl)c13)n2CCCn1c(-c2c(C(=O)O)sc3cccc(Cl)c23)nc2cc(C(N)=O)ccc21 (single isomer, unassigned) [Example 4.2, 3,3′-(Propane-1,3-diylbis(5-carbamoyl-1H-benzo[d]imidazole-1,2-diyl))bis(4-chlorobenzo[b]thiophene-2-carboxylic acid)] | 19 | 4.56 | −0.76 | > 40 | 23 | 16.6 |  |  |  | 
COc1ccc(F)c2sc(C(=O)O)c(-c3nc4cc(C(N)=O)ccc4n3CCn3c(-c4c(C(=O)O)sc5c(F)ccc(OC)c45)nc4cc(C(N)=O)ccc43)c12 (single isomer, unassigned) [Example 13.1, 3,3′-(Ethane-1,2-diylbis(5-carbamoyl-1H-benzo[d]imidazole-1,2-diyl))bis(7-fluoro-4-methoxybenzo[b]thiophene-2-carboxylic acid)] | 3.75 |  | 18.17 | 8.31 |  |  | 31.23 | 0.3 | 0.004 | 
Cc1cccc2sc(C(=O)O)c(-c3nc4cc(C(N)=O)ccc4n3CCn3c(-c4c(C(=O)O)sc5cccc(C)c45)nc4cc(C(N)=O)ccc43)c12 (single isomer, unassigned) [Example 15.2, 3,3′-(Ethane-1,2-diylbis(5-carbamoyl-1H-benzo[d]imidazole-1,2-diyl))bis(4-methylbenzo[b]thiophene-2-carboxylic acid)] | 0.199 |  | 20.41 | 0.272 |  |  | 31.87 | 0.191 | 0.00498 | 
NC(=O)c1ccc2c(c1)nc(-c1c(C(=O)O)sc3c(F)ccc(Br)c13)n2CCn1c(-c2c(C(=O)O)sc3c(F)ccc(Br)c23)nc2cc(C(N)=O)ccc21 (single isomer, unassigned) [Example 20.1, 3,3′-(Ethane-1,2-diylbis(5-carbamoyl-1H-benzo[d]imidazole-1,2-diyl))bis(4-bromo-7-fluorobenzo[b]thiophene-2-carboxylic acid)] | 0.632 |  | 22.71 | 1.58 |  |  | 31.76 | 0.016 | 0.00165 | 
NC(=O)c1ccc2c(c1)nc(-c1c(C(=O)O)sc3cccc(Cl)c13)n2CCCCn1c(-c2c(C(=O)O)sc3cccc(Cl)c23)nc2cc(C(N)=O)ccc21 [Example 3, 3,3′-(Butane-1,4-diylbis(5-carbamoyl-1H-benzo[d]imidazole-1,2-diyl))bis(4-chlorobenzo[b]thiophene-2-carboxylic acid)] | > 40 | -0.55 |  | > 40 |  |  |  | 6.3 | 5.06 | -1.83
COc1nccc2sc(C(=O)O)c(-c3nc4cc(C(N)=O)ccc4n3CCn3c(-c4c(C(=O)O)sc5ccnc(OC)c45)nc4cc(C(N)=O)ccc43)c12 [Example 7, 3,3′-(Ethane-1,2-diylbis(5-carbamoyl-1H-benzo[d]imidazole-1,2-diyl))bis(4-methoxythieno[3,2-c]pyridine-2-carboxylic acid)] | 7.52 | 6.96 |  | > 40 |  |  |  | 80 | 28 | 0.6
CCOC(=O)c1sc2cccc(Cl)c2c1-c1nc2cc(C(N)=O)ccc2n1CCn1c(-c2c(C(=O)OCC)sc3cccc(Cl)c23)nc2cc(C(N)=O)ccc21 [Example A1, Diethyl 3,3′-(ethane-1,2-diylbis(5-carbamoyl-1H-benzo[d]imidazole-1,2-diyl))bis(4-chlorobenzo[b]thiophene-2-carboxylate)] | 12 | 0.36 |  | 18.4 |  |  |  | 16 | 14.9 | 1.84
